Assays:
GSC1228 = assay: Cell proliferation assay (CellTiter-Glo 3D); assay type: cell-based; details: GSC1228, 96 h; read-out: Growth inhibitory IC50 (GI50)
Experimental: (§1) Supplementary materials and methods […]
(§2) Cell lines and culture conditions […]
(§3) 2013 #1009}{Katsushima, 2016 #1156}. GSC cells were cultured in Neurobasal Medium (Life Technologies, Carlsbad, CA, USA) containing N2 and B27 supplements (Life Technologies) along with human recombinant basic fibroblast growth factor and epidermal growth factor (20 ng/ml each; R&D Systems, Minneapolis, MN, USA). Cells were cultured at 37°C in a humidified incubator with 5% CO2.
(§4) For the cell proliferation assay, cells at a density of 1 × 10^5 cells per well were seeded before treatment with LSD1 inhibitors. Cell proliferation was measured after 4 days using a Cell Counting Kit 8 (Dojindo, Kumamoto, Japan) according to the manufacturer ’s […]
(§5) instructions. For GSC cells, the CellTiter-Glo 3D Viability Assay (Promega, Madison, WI, USA) was used to measure the living cells. […]

GSC222 = assay: Cell proliferation assay (CellTiter-Glo 3D); assay type: cell-based; details: GSC222, 96 h; read-out: Growth inhibitory IC50 (GI50)
Experimental: as §1, §2, §3, §4, §5

GSC316 = assay: Cell proliferation assay (CellTiter-Glo 3D); assay type: cell-based; details: GSC316, 96 h; read-out: Growth inhibitory IC50 (GI50)
Experimental: as §1, §2, §3, §4, §5

F3 = assay: Cell proliferation assay (Cell Counting Kit 8); assay type: cell-based; details: 96 h; F3 (normal neural stem cell line), 4 days; read-out: Growth inhibitory IC50 (GI50)
Excerpt: as §1
(§6) Cell lines and culture conditions
(§7) Glioblastoma cell line, LN229, was obtained from the American Type Culture Collection (ATCC, Manassas, VA, USA). Normal fibroblast cell lines TIG3 and WI-38, TM31 (low grade glioma) were obtained from the RIKEN Bioresource Research Center (Tsukuba, Japan). Onda10 and KINGS1 (low grade glioma) cell lines were obtained from the Japanese Collection of Research Bioresources (Ibaraki, Japan). F3 is utilized as a neural stem cell line{Kim, 2004 #1412}{Natsume, 2013 #1009}. All cells were maintained in DMEM medium (Wako, Osaka, Japan) containing 5% fetal bovine serum (FBS, Thermo Fisher Scientific, Waltham, MA, USA) and 1% penicillin-streptomycin (Wako). […]
as §4, §5

KINGS1 = assay: Cell proliferation assay (Cell Counting Kit 8); assay type: cell-based; details: Homo sapiens, KINGS-1, 96 h; KINGS1 (grade III glioma), 4 days; read-out: Growth inhibitory IC50 (GI50)
Excerpt: as §1, §6, §7, §4, §5

LN229 = assay: Cell proliferation assay (Cell Counting Kit 8); assay type: cell-based; details: Homo sapiens, LN-229, 96 h; LN229 (GBM cell line), 4 days; read-out: Growth inhibitory IC50 (GI50)
Excerpt: as §1, §6, §7, §4, §5

Onda10 = assay: Cell proliferation assay (Cell Counting Kit 8); assay type: cell-based; details: 96 h; Onda10 (grade III glioma), 4 days; read-out: Growth inhibitory IC50 (GI50)
Excerpt: as §1, §6, §7, §4, §5

TIG3 = assay: Cell proliferation assay (Cell Counting Kit 8); assay type: cell-based; details: Homo sapiens, TIG-3, 96 h; TIG3 (normal fibroblast), 4 days; read-out: Growth inhibitory IC50 (GI50)
Excerpt: as §1, §6, §7, §4, §5

TM31 = assay: Cell proliferation assay (Cell Counting Kit 8); assay type: cell-based; details: 96 h; TM31 (grade III glioma), 4 days; read-out: Growth inhibitory IC50 (GI50)
Excerpt: as §1, §6, §7, §4, §5

WI38 = assay: Cell proliferation assay (Cell Counting Kit 8); assay type: cell-based; details: Homo sapiens, WI-38, 96 h; WI38 (normal fibroblast), 4 days; read-out: Growth inhibitory IC50 (GI50)
Excerpt: as §1, §6, §7, §4, §5

MAO-B = target: T1, MAO-B (Homo sapiens, UniProt P27338); assay: Enzyme inhibition assay (in vitro peroxidase assay) against MAO-B
T1 sequence (P27338 1-520): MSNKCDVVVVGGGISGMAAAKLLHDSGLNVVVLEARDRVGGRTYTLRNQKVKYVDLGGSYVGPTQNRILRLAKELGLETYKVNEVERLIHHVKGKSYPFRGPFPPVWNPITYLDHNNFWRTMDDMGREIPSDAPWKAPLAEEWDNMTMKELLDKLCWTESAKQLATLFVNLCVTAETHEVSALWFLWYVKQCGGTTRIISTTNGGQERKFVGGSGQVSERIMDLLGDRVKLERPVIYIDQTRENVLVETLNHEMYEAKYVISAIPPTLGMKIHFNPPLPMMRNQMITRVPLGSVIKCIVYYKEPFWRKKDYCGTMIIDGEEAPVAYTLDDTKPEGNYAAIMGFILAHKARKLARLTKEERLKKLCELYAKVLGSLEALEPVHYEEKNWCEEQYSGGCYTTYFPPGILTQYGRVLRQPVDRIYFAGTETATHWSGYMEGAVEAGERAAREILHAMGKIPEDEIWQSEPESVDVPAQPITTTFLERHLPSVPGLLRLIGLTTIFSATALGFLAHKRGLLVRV
Experimental: Enzyme inhibition assays against LSD1, LSD2, MAO-A, and MAO-B were performed as previously described [25]. Technical replicates, n = 3.

With `NC1CCC(NC2CC2c2cc(F)cc(F)c2OCc2ccccc2)CC1` (stereo not drawn) [S2172] the IC50 (GSC1228) was 12.5 µM, the IC50 (GSC222) was 17 µM and the IC50 (GSC316) was 12 µM. The IC50 (F3) was 22.5 µM, the IC50 (KINGS1) was 33 µM and the IC50 (LN229) was 8.2 µM. It also gave an IC50 (Onda10) of 21 µM, an IC50 (TIG3) greater than 40 µM and an IC50 (TM31) of 17 µM. The IC50 (WI38) was 29.9 µM, the Ki (MAO-B) was greater than 250 µM and the “Inhibition of MAO-B (in words)” value (MAO-B; in vitro peroxidase assay) was “not inhibited”.

Reference: article PMC11645267, “Novel pharmacologic inhibition of lysine-specific demethylase 1 as a potential therapeutic for glioblastoma” (Cancer Gene Therapy, 2024)
